According to patent US20150315212A1, “SUBSTITUTED 1,4-DITHIINE DERIVATIVES AND THEIR USE AS FUNGICIDES” (BASF SE, priority 2012, published 2015):

Columns and labels:
Phakopsora pachyrhizi = experiment: Protective control of soy bean rust on soy beans (Example 5); type: in vivo; conditions: 500 ppm, sprayed to run-off 1 day before inoculation, soy bean seedlings, assessed after fourteen days; untreated plants 90% infected
Septoria tritici = experiment: Preventative control of leaf blotch on wheat (Example 4); type: in vivo; conditions: 500 ppm, sprayed the day before inoculation, wheat seedlings, assessed after 4 weeks; untreated plants 90% infected
Alternaria solani = conditions: 500 ppm, sprayed the day before inoculation, tomato seedlings, assessed after 5 days; untreated plants 90% infected
Experimental: Preventative Fungicidal Control of Early Blight on Tomatoes (Alternaria solani)
Young seedlings of tomato plants were grown in pots. These plants were sprayed to run-off with an aqueous suspension, containing the concentration of active ingredient or mixture mentioned in the table below. The next day, the treated plants were inoculated with an aqueous suspension of Alternaria solani. Then the trial plants were immediately transferred to a humid chamber. After 5 days at 18 to 20° C. and a relative humidity close to 100%, the extent of fungal attack on the leaves was visually assessed as % diseased leaf area.

## 6-Methyl-5H-Pyrrolo[3″,4″:5,6][1,4]dithiino-[2,3-C]isothiazole-3-carbonitrile-5,7(6H)-dione [Example 1.1]
Phakopsora pachyrhizi
  infection (% diseased leaf area): less than or equal to 1%
Septoria tritici
  infection (% diseased leaf area): less than or equal to 3%
Alternaria solani
  infection (% diseased leaf area): less than or equal to 5%
